Read-outs that look alike come from different tables or passages of the source.
What was measured:
[1] = tested on: Mycosphaerella graminicola; Anamorph: Septoria tritici; Bayer Code SEPTTR (standard laboratory isolate, SI SEPTTR); test: Type A (high volume) assay, leaf blotch of wheat, standard laboratory SEPTTR isolate (SI SEPTTR); type: in vivo, Mycosphaerella graminicola on wheat plants (variety Yuma); conditions: Zymoseptoria tritici, standard laboratory isolate, high volume, 50 ppm, wheat (Yuma)
How it was run: (§1)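 Wheat seedlings (Yuma, first leaf emerged) sprayed with acetone/Triton X-100 solutions (Type A) or 10% EC diluted in 0.1% Trycol at 200 L/ha (Type B), inoculated before or after spraying. Inoculated plants held 3 days at 20 °C, 100% RH, then greenhouse; % disease control from severity versus untreated plants.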

[2] = tested on: Mycosphaerella graminicola; Anamorph: Septoria tritici; Bayer Code SEPTTR (standard laboratory isolate, SI SEPTTR); test: Type B (low volume, EC formulation, track sprayer 200 L/ha) assay, leaf blotch of wheat, standard laboratory SEPTTR isolate (SI SEPTTR); type: in vivo, Mycosphaerella graminicola on wheat plants (variety Yuma); conditions: Zymoseptoria tritici, 72 h, standard laboratory isolate, low volume EC, 100 g/ha, wheat (Yuma)
How it was run: as §1

[3] = Type B (low volume, EC formulation, track sprayer 200 L/ha) assay, leaf blotch of wheat, SEPTTR field isolate (FI SEPTTR); type: in vivo, Mycosphaerella graminicola on wheat plants (variety Yuma); conditions: Zymoseptoria tritici, 72 h, field isolate, low volume EC, 100 g/ha, wheat (Yuma)
How it was run: as §1

[4] = tested on: Mycosphaerella graminicola; Anamorph: Septoria tritici; Bayer Code SEPTTR (field isolate collected from Wellsbourne, England in 2012, FI SEPTTR); test: as above; type: in vivo, Mycosphaerella graminicola on wheat plants (variety Yuma); conditions: field isolate, low volume EC, 100 g/ha, wheat (Yuma); for Disease Control, FI SEPTTR Type B Assay (100 g/ha) 3 DC: 3 Day Curative; for Disease Control, FI SEPTTR Type B Assay (100 g/ha) 3 DP: 3 Day Protectant
How it was run: as §1

[5] = 24 h, 1 Day Protectant, read-out: Disease Control, SI SEPTTR Type A Assay (50 ppm) 1 DP
[6] = 3 Day Curative, read-out: Disease Control, SI SEPTTR Type B Assay (100 g/ha) 3 DC
[7] = 3 Day Protectant, read-out: Disease Control, SI SEPTTR Type B Assay (100 g/ha) 3 DP
[8] = 3 Day Curative, read-out: Disease Control, FI SEPTTR Type B Assay (100 g/ha) 3 DC
[9] = 3 Day Protectant, read-out: Disease Control, FI SEPTTR Type B Assay (100 g/ha) 3 DP

| SMILES | melting point [°C] | pest or weed control at 50 ppm [1, 5] [%] | pest or weed control at 50 ppm ([1]; 72 h, 3 Day Curative, read-out: Disease Control, SI SEPTTR Type A Assay (50 ppm) 3 DC) [%] | pest or weed control at 100 g/ha [2, 6] [%] | pest or weed control at 100 g/ha [2, 7] [%] | pest or weed control at 100 g/ha [3, 8] [%] | pest or weed control at 100 g/ha [3, 9] [%] | Disease Control, FI SEPTTR Type B Assay (100 g/ha) 3 DC [4] | Disease Control, FI SEPTTR Type B Assay (100 g/ha) 3 DP [4] |
| --- | --- | --- | --- | --- | --- | --- | --- | --- | --- |
| CC(O)(Cc1cncnc1)c1ccc(-c2ccc(Cl)cc2)cn1 (centres unmarked) [Compound 25, 2-[5-(4-chlorophenyl)-2-pyridyl]-1-pyrimidin-5-yl-propan-2-ol] | 150 to 155 | 40 to 59 | 80 to 100 |  |  |  |  |  |  |
| COc1ncncc1C(O)(c1ccc(-c2ccc(OC(F)(F)F)cc2)cn1)C(C)(C)C (centres unmarked) [Compound 167] |  | 80 to 100 |  | 80 to 100 | 60 to 79 | 80 to 100 | 80 to 100 |  |  |
| COc1ncncc1C(O)(c1ccc(-c2ccc(C3(C#N)CC3)cc2)cn1)C(C)(C)C (centres unmarked) [Compound 169] |  | 80 to 100 |  | 80 to 100 | 60 to 79 | 80 to 100 | 80 to 100 |  |  |
| CCOC(CC)(c1cncnc1)c1ccc(-c2ccc(OC(F)(F)F)cc2F)cn1 (centres unmarked) [Compound 193] |  |  |  |  |  |  |  | D (<40) | B (60-79) |
| CC(C)(C)C(O)(Cc1cncnc1)c1ccc(-c2ccc(SC(F)(F)F)cc2)cn1 (centres unmarked) [Compound 231] |  |  |  |  |  |  |  | D (<40) | B (60-79) |
